Measured values: PMC5824344 (ACS Chemical Biology, 2017)
Like-named read-outs stand apart in the source and are kept apart here.

Legend:
[1] = cited from earlier work
[2] = biological target: T1, rat liver ER GluII (Rattus norvegicus, UniProt A0A8I6GFL3); assay: ER α-glucosidase II inhibition with native-like fluorescently labelled glycan substrate (HPLC); type: biochemical
T1 construct: Rat liver ER, II; from tissue; host or cells: liver of male Wistar rats
Protocol: % Inhibition (C) Glc1→ Glc0
Supplemental Figure 1: In vitro inhibition of GluII by 4. Enzyme activity assays were carried out using rat liver ER GluII with either α-p-nitrophenylglucoside ( α-PNPG, A) or ﬂuorescently labelled glycan ( B and C) as substrate. The curves show the relationship between ToP-DNJ 4 concentration and inhibition of the enzymatic activity. The iminosugar inhibits the enzymatic catalysis of the reactions indepen-dent of substrate, but with diﬀering IC 50 values: 9.0 µm for α-PNPG; 14 µm for Glc2Man7GlcNAc2; 56 µm for Glc1Man7GlcNAc2. […]
4 Enzyme Inhibition Assays
All rat enzymes were isolated from 18-week-old, male Wistar rats, while human lysosomal α-glucosidase was obtained in commercially available form from Sanoﬁ Genzyme. Inhibition of isolated glucosidases was evaluated as described previously. 3 Brieﬂy, maltase, isomaltase, sucrase, and cellobiase were used as partially puriﬁed tissue extracts. Inhibition assays for each enzyme were performed with the respective natural substrate, and release of d-glucose measured by Glucose B-test (Wako Diagnostics). Assays of rat ER α-glucosidase II and human lysosomal α-glucosidase inhibition were conducted with α-p-nitrophenylglucoside as substrate; 400 mm Na2CO3 was added to quench these reactions, and the extent of hydrolysis was evaluated as absorbance at 400 nm by spectrophotometer. […]

[3] = biological target: T2, Rat intestinal cellobiase (Rattus norvegicus, UniProt Q02401); assay: Inhibition of rat intestinal cellobiase (β-glucosidase; natural substrate, glucose release); type: biochemical; conditions: read-out: inhibition of intestinal cellobiase at the maximum tested concentration
T2 sequence (Q02401 868-1928): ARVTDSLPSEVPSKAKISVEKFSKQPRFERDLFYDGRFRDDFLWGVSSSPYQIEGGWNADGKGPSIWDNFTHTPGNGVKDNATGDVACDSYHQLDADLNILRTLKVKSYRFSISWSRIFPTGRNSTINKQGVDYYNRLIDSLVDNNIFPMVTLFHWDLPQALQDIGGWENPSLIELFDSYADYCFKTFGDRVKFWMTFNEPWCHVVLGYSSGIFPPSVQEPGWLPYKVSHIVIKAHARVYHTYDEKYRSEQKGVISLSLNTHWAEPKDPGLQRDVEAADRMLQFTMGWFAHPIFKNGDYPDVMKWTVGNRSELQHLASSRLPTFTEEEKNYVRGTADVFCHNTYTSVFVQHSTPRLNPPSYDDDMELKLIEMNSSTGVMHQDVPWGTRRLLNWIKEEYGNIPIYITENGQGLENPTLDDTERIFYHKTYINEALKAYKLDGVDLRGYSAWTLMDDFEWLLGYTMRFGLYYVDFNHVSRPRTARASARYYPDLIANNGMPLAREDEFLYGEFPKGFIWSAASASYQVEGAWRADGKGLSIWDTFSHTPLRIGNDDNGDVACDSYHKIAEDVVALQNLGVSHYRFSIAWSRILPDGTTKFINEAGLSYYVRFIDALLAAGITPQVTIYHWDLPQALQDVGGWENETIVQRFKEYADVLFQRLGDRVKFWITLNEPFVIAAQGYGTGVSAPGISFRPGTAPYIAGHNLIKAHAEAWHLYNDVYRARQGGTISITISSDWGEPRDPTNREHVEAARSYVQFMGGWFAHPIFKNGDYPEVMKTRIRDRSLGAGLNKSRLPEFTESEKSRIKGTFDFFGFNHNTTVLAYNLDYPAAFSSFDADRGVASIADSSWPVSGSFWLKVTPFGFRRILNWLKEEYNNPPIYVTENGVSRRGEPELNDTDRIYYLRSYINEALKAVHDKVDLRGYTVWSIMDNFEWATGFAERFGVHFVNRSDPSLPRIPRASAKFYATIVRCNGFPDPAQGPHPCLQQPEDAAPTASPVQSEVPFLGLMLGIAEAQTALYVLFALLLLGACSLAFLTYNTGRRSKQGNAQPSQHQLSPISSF

T1 sequence (A0A8I6GFL3 33-944): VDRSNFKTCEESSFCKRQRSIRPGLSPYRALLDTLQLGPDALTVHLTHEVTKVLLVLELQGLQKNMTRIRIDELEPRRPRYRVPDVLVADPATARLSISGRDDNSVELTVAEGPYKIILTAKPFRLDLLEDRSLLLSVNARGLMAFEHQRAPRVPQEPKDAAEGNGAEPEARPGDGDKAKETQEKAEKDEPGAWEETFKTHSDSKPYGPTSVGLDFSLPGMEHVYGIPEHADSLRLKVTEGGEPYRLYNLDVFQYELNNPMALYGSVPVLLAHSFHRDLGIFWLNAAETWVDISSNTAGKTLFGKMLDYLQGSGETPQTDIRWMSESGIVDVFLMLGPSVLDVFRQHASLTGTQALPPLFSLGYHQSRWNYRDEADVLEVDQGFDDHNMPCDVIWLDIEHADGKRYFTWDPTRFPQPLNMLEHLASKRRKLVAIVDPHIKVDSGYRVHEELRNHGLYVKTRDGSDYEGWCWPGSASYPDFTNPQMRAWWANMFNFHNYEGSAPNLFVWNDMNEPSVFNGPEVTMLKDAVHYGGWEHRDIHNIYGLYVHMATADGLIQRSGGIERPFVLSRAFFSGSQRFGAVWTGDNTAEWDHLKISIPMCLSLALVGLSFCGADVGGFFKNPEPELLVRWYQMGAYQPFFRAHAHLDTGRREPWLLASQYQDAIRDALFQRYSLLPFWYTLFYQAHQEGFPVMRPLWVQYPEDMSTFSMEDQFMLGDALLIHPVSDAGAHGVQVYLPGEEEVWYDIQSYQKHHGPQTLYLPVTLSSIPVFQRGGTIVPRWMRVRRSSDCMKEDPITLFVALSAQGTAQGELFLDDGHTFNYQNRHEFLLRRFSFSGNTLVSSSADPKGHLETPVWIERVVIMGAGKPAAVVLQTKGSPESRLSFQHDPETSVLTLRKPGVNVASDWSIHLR
T1 sequence (A0A8I6ADW9 1-525 partner): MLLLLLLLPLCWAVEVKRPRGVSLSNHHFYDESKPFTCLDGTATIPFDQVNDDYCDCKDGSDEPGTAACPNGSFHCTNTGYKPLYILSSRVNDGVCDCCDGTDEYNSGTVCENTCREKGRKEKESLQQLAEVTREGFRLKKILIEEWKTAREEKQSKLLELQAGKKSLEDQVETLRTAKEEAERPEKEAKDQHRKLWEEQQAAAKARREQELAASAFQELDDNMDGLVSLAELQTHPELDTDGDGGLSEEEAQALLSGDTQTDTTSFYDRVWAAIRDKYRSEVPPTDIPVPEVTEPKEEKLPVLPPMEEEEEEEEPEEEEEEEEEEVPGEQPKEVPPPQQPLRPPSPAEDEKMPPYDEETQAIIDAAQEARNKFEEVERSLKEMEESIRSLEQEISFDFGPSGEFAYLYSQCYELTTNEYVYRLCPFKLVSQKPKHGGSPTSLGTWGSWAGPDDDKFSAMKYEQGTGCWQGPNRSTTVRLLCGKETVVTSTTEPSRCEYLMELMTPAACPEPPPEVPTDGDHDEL

SMILES | plasma half-life [1] | tissue in which compound is found in the highest amounts ([1]; renally excreted) | IC50 ([2]; first GluII reaction, fluorescently labelled Glc2Man7GlcNAc1 substrate, read-out: IC50 for the conversion of diglucosylated to monoglucosylated glycan by GluII) | IC50 ([2]; second GluII reaction, fluorescently labelled glycan substrate, read-out: IC50 for the conversion of monoglucosylated to nonglucosylated glycan by GluII) | inhibition at 50 µM [3]
CCCCN1CC(O)C(O)C(O)C1CO [Compound 2, N-butyl-D-1-deoxynojirimycin, reference compound] | 5 h | highest amounts in the kidneys and bladder |  |  | 
Cc1c(C)c2c(c(C)c1OCCCCCN1CC(O)C(O)C(O)C1CO)CCC(C)(CCCC(C)CCCC(C)CCCC(C)C)O2 (centres unmarked) [Compound 4, 5′-tocopheroxypentyl-DNJ] |  |  | 14 µM | 56 µM | < 50%
